# From patent publication US7811604B1, “Non-effervescent, orally disintegrating solid pharmaceutical dosage forms comprising clozapine and methods of making and using the same” (Barr Laboratories, Inc., priority 2005, dated 2010)
# Where a SMILES comes first, the peptide text is derived from it.
# Key:
# [1] = Compaction index of excipients; type: physicochemical; details: force to fracture a solid mass prepared by compaction of 500 mg of powder under 1000 lbs pressure, 16/32″ die, flat face punches
# Source text: In some embodiments, the concentration of the non-polymeric water-soluble carrier, disintegrant, and water-insoluble polymer can be selected to optimize the physical integrity of the dosage forms of the present invention (i.e., to minimize the friability of the dosage forms of the present invention). Not being bound by any particular theory, the durability, robustness, and/or friability of the compressed dosage forms of the present invention can be estimated using the compaction index of the excipients used to prepare the dosage forms. As used herein, “compaction index” refers to the force in kiloponds (kp) required to fracture a solid mass prepared by compaction of 500 mg of powder under 1000 lbs pressure using a 16/32″ die and flat face punches. To obtain dosage forms having both low friability and low hardness, a mixture used to prepare the dosage forms can have a compaction index of at least about 5 kp/500 mg/1000 lbs. Not being bound by any particular theory, the compaction index can be used as an indicator of particle interactions in a compressed solid dosage form. For example, the compression of a dry mixture usually has a significant effect on the inter-particle interactions within the mixture, and can involve combinations of • (i) closer contact between particles and the exclusion of air; • (ii) alignment and interlocking of particles; • (iii) the development of stresses and shearing forces that result in fracture and the generation of smaller particles; • (iv) elastic and plastic deformations of particles that can change particle shape; and • (v) chemical bonding between adjacent particles, especially during long-term storage.
# Depending on the properties of the excipients comprising the mixture, powdered mixtures can undergo elastic, plastic, or visco-elastic deformation, or brittle fracture, when placed under compressive force. After compression, a compressed dosage form tends to undergo elastic recovery, visco-elastic recovery or brittle fracture. […]
# [2] = Particle size and particle size distribution of ingredients; type: physicochemical; details: for D50: median particle size of ingredient used for Dosage Form A; for D10 / D90: particle size distribution of ingredient used for Dosage Form A; for VMD: volume mean diameter D[4,3] of ingredient used for Dosage Form A
# Source text: As used herein, the term “particle size” refers to particle diameter. Particle size and particle size distribution can be measured using, for example, a Hyac/Royco particle size analyzer, a Malvern particle size analyzer, a Beckman Coulter laser diffraction particle size analyzer, or a Shimadzu laser diffraction particle size analyzer. As used herein, the term “diameter” relates to a volumetric measurement based on an approximate spherical shape of a particle. In addition to encompassing free base clozapine particles of a given size, the present invention is also directed to formulations and solid oral dosage forms wherein the distribution of particle sizes of free base clozapine and the excipients are controlled. As used herein, a “distribution” refers to the number or concentration (i.e., percentage) of particles having a certain size, or range of sizes, within a given lot, batch, or solid oral dosage form of the present invention.
# As used herein, “volume mean diameter,” when used in reference to the size of particles for use with the present invention, refers to the value of the volume moment mean as represented by D[4,3]. This value indicates the central point of frequency around which the distribution of surface area or volume rotates.
# As used herein, the “median” particle size is synonymous with the “particle size D50,” in microns. For example, for the five particle values listed above, the median diameter, or particle size D50, would be 20 μm.
# As used herein, “particle size D90,” refers a mixture wherein about 90% of all measurable particles have a diameter equal to or less than the value D90, in microns, and 10% of the measurable particles have a diameter greater than the value of D90, in microns.
# The particle size and particle size distribution of the various excipient used in the particulate mixture of the present invention are listed in Table 2.
Compaction index [1] [kp/500 mg/1000 lbs],D50 [2] [μm],D10 [2] [μm],D90 [2] [μm],VMD [2] [μm],SMILES
10,–,–,–,–,COC(=O)[C@H](Cc1ccccc1)NC(=O)[C@@H](N)CC(=O)O [Aspartame] (H-Asp-Phe-OMe)
–,19,5,51,25,"CN1CCN(C2=Nc3cc(Cl)ccc3Nc3ccccc32)CC1 [Free base clozapine, 8-chloro-11-(4-methyl-1-piperazinyl)-5H-dibenzo[b,e][1,4]diazepine, reference compound]"
9,221,81,507,263,OC[C@@H](O)[C@@H](O)[C@H](O)[C@H](O)CO [Mannitol]
0.7,167,86,310,184,OC[C@@H](O)[C@H](O)[C@@H](O)CO [Xylitol]
